From ChEMBL document CHEMBL2046391, “Calyxamides A and B, cytotoxic cyclic peptides from the marine sponge Discodermia calyx” (J Nat Prod, 2012)
Activity calls are given as the source filed them.

Experiments:
[1] = tested on: Saccharomyces cerevisiae; experiment: Antimicrobial activity against Saccharomyces cerevisiae at 100 ug/disc measured every 24 hrs for 4 days by disc diffusion method; assay type: functional, organism-based
[2] = tested on: Lactuca sativa; experiment: Phytotoxicity against lettuce seedling at 50 ug/mL by seedling elongation assay; assay type: functional, organism-based
[3] = tested on: Bacillus cereus; experiment: Antimicrobial activity against Bacillus cereus at 100 ug/disc measured every 24 hrs for 4 days by disc diffusion method; assay type: functional, organism-based
[4] = tested on: Escherichia coli; experiment: Antimicrobial activity against Escherichia coli at 100 ug/disc measured every 24 hrs for 4 days by disc diffusion method; assay type: functional, organism-based
[5] = tested on: Drosophila melanogaster; experiment: Insecticidal activity against Drosophila melanogaster at 100 ug; assay type: functional, organism-based
[6] = tested on: Aedes aegypti; experiment: Insecticidal activity against Aedes aegypti larvae at 100 ug/mL after 24 hrs; assay type: functional, organism-based
[7] = tested on: Beauveria bassiana; experiment: Antimicrobial activity against Beauveria bassiana ARSEF 8354 at 100 ug/disc measured every 24 hrs for 4 days by disc diffusion method; assay type: functional
[8] = tested on: Colletotrichum acutatum; experiment: Antimicrobial activity against Colletotrichum acutatum at 100 ug/disc measured every 24 hrs for 4 days by disc diffusion method; assay type: functional, organism-based
[9] = tested on: Botrytis cinerea; experiment: Antimicrobial activity against Botrytis cinerea at 100 ug/disc measured every 24 hrs for 4 days by disc diffusion method; assay type: functional, organism-based
[10] = tested on: MCF7; experiment: Antiproliferative activity against human MCF7 cells at 100 uM by XTT assay; assay type: functional, cell-based
[11] = tested on: Caco-2; experiment: Antiproliferative activity against human Caco2 cells at 100 uM by XTT assay; assay type: functional, cell-based

Measured: Activity

CC[C@H](C)C[C@H](C)[C@H]1OC(=O)[C@H](Cc2ccccc2)NC(=O)/C(C)=C/[C@H](C)[C@@H](O)/C(C)=C/[C@H](C)[C@H](OC(C)=O)/C(C)=C/[C@@H]1C
not listed: [10] | [11]
inactive: all other assays above

CC[C@H](C)C[C@H](C)[C@H]1OC(=O)[C@H](Cc2ccccc2)NC(=O)/C(C)=C/[C@H](C)[C@@H](O)/C(C)=C/[C@H](C)[C@H](O)/C(C)=C\[C@@H]1C
inactive: [10] | [11]
